According to patent publication US12440492B2, “Pharmaceutical compositions comprising AKT protein kinase inhibitors” (Genentech, Inc., priority 2016, dated 2025):
Counter-ions that a name gives are not always drawn.

Experiments:
Format in all cases: physicochemical
[1] = Bulk density, tapped density and Carr index; conditions: spray dried amorphous ipatasertib monohydrochloride powder; monohydrochloride
[2] = Particle size distribution (d10, d50, d90) by laser diffraction; conditions: spray dried amorphous ipatasertib monohydrochloride powder
Source text: FIG. 6 illustrates particle size distribution of the material of Example 6C (Batch HQ00003) spray dried with two-feed nozzle as obtained by laser diffraction A bimodal particle size distribution is obvious. FIG. 9 illustrates particle size distribution of spray dried material with rotary wheel nozzle, i.e. of the material of batch BS1506SA03 of Example 13 (Table 20) obtained using a Malvern Mastersizer 2000 equipped with Hydro 2000S wet sample dispersion unit (Malvern Instruments Ltd, Malvern/UK). A monomodal particle size distribution is obvious. The terms “d50 value” (sometimes also referred to as “d(0.5)-value”) and “mass-median diameter” (or MMD) can be used interchangeably and denote the average particle size by mass, i.e. the average equivalent diameter of a particle, which is defined as the diameter where 50% (w) of the particles of the ensemble have a larger equivalent spherical diameter, and the other 50% (w) have a smaller equivalent spherical diameter. In analogy, the term “d10-value” denotes the particle diameter wherein 10% (w) of the particles of the ensemble have a smaller equivalent spherical diameter. In analogy, the term “d90-value” denotes the particle diameter wherein 90% (w) of the particles of the ensemble have a smaller equivalent spherical diameter.

[3] = Solid state by X-ray powder diffraction; conditions: * indicates absence of crystalline API; monohydrochloride
Source text: Bragg's law describes the diffraction of crystalline material with the equation “2d·sin(theta)=n·lambda”, wherein “d” denotes perpendicular distance (in Angstroms) between pairs of adjacent planes in a crystal (“d-spacing”), “theta” denotes the Bragg angle, “lambda” denotes the wavelength and “n” is an integer. When Bragg's law is fulfilled, the reflected beams are in phase and interfere constructively so that Bragg diffraction peaks are observed in the X-ray diffraction pattern. At angles of incidence other than the Bragg angle, reflected beams are out of phase and destructive interference or cancellation occurs. […] The XRPD pattern of an amorphous material is further characterized by one or more amorphous halos.
The term “XRPD” denotes the analytical method of X-Ray Powder Diffraction. The repeatability of the angular values is in the range of 2Theta±0.2°, more particularly in the range of 2Theta±0.1°. The term “approximately” given in combination with an angular value denotes the variance which is in the range of 2Theta±0.2°, particularly in the range of 2Theta±0.1°. The relative XRPD peak intensity is dependent upon many factors such as structure factor, temperature factor, crystallinity, polarization factor, multiplicity, and Lorentz factor. Relative intensities may vary considerably from one measurement to another due to preferred orientation effects. According to USP 941 (US Pharmacopoeia, 37th Edition, General Chapter 941), relative intensities between two samples of the same material may vary considerably due to “preferred orientation” effects. Anisotropic materials adopting preferred orientation will lead to anisotropic distribution of properties such as modulus, strength, ductility, toughness, electrical conductivity, thermal expansion, etc., as described e.g. in Kocks U. F. et al. (Texture and Anisotropy: Preferred Orientations in Polycrystals and Their Effect on Materials Properties, Cambridge University Press, 2000). In XRPD but also Raman spectroscopy, preferred orientations cause a change in the intensity distribution. Preferred orientation effects are particularly pronounced with crystalline APIs of relatively large particle size.

SMILES | Bulk density [1] [gcm^−3] | Tapped density [1] [gcm^−3] | Particle size d10 [2] [μm] | Particle size d50 [2] [μm] | Particle size d90 [2] [μm] | Solid state / Polymorphy (X-Ray, XRPD) [3]
CC(C)NC[C@@H](C(=O)N1CCN(c2ncnc3c2[C@H](C)C[C@H]3O)CC1)c1ccc(Cl)cc1 [Composition 141210426, ipatasertib monohydrochloride] | 0.24 | 0.37 | 8.5 | 21 | 43 | amorph.*
CC(C)NC[C@@H](C(=O)N1CCN(c2ncnc3c2[C@H](C)C[C@H]3O)CC1)c1ccc(Cl)cc1 [Composition 130810454, ipatasertib monohydrochloride] | 0.47 | 0.61 | 12 | 36 | 72 | Amorphous*
CC(C)NC[C@@H](C(=O)N1CCN(c2ncnc3c2[C@H](C)C[C@H]3O)CC1)c1ccc(Cl)cc1 [Composition 140210413, ipatasertib monohydrochloride] | 0.45 | 0.59 | 10 | 28 | 56 | amorphous*
CC(C)NC[C@@H](C(=O)N1CCN(c2ncnc3c2[C@H](C)C[C@H]3O)CC1)c1ccc(Cl)cc1 [Composition 140110403, ipatasertib monohydrochloride] | 0.37 | 0.52 | 9.4 | 27 | 61 | amorphous*
CC(C)NC[C@@H](C(=O)N1CCN(c2ncnc3c2[C@H](C)C[C@H]3O)CC1)c1ccc(Cl)cc1 [Composition 141210422, ipatasertib monohydrochloride] | 0.37 | 0.54 | 9.6 | 27 | 54 | amorph.*
CC(C)NC[C@@H](C(=O)N1CCN(c2ncnc3c2[C@H](C)C[C@H]3O)CC1)c1ccc(Cl)cc1 [Composition 140110409, ipatasertib monohydrochloride] | 0.27 | 0.39 | 11.3 | 35 | 79 | amorphous*
CC(C)NC[C@@H](C(=O)N1CCN(c2ncnc3c2[C@H](C)C[C@H]3O)CC1)c1ccc(Cl)cc1 [Composition 140110404, ipatasertib monohydrochloride] | 0.49 | 0.63 | 12.5 | 47 | 108 | amorphous*
CC(C)NC[C@@H](C(=O)N1CCN(c2ncnc3c2[C@H](C)C[C@H]3O)CC1)c1ccc(Cl)cc1 [Composition 140110410, ipatasertib monohydrochloride] | 0.18 | 0.30 | 8.1 | 23 | 50 | amorphous*

Second part, the compound after the results:

Bulk density [1] [gcm^−3] | Tapped density [1] [gcm^−3] | Particle size d10 [2] [μm] | Particle size d50 [2] [μm] | Particle size d90 [2] [μm] | Solid state / Polymorphy (X-Ray, XRPD) [3] | SMILES
0.41 | 0.54 | 10.2 | 26 | 53 | amorphous* | CC(C)NC[C@@H](C(=O)N1CCN(c2ncnc3c2[C@H](C)C[C@H]3O)CC1)c1ccc(Cl)cc1 [Composition 140110406, ipatasertib monohydrochloride]
0.37 | 0.54 | 9.5 | 27 | 54 | amorph.* | CC(C)NC[C@@H](C(=O)N1CCN(c2ncnc3c2[C@H](C)C[C@H]3O)CC1)c1ccc(Cl)cc1 [Composition 141210424, ipatasertib monohydrochloride]
0.48 | 0.57 | 18 | 53 | 109 | amorphous* | CC(C)NC[C@@H](C(=O)N1CCN(c2ncnc3c2[C@H](C)C[C@H]3O)CC1)c1ccc(Cl)cc1 [Composition 140210414, ipatasertib monohydrochloride]
0.47 | 0.60 | 13 | 46 | 94 | amorphous* | CC(C)NC[C@@H](C(=O)N1CCN(c2ncnc3c2[C@H](C)C[C@H]3O)CC1)c1ccc(Cl)cc1 [Composition 140210412, ipatasertib monohydrochloride]
0.28 | 0.40 | 9.3 | 26 | 57 | amorphous* | CC(C)NC[C@@H](C(=O)N1CCN(c2ncnc3c2[C@H](C)C[C@H]3O)CC1)c1ccc(Cl)cc1 [Composition 140110405, ipatasertib monohydrochloride]
0.45 | 0.60 | 7 | 20 | 46 | amorphous* | CC(C)NC[C@@H](C(=O)N1CCN(c2ncnc3c2[C@H](C)C[C@H]3O)CC1)c1ccc(Cl)cc1 [Composition 140110402, ipatasertib monohydrochloride]
0.42 | 0.60 | 14 | 40 | 79 | Amorphous* | CC(C)NC[C@@H](C(=O)N1CCN(c2ncnc3c2[C@H](C)C[C@H]3O)CC1)c1ccc(Cl)cc1 [Composition 130710450, ipatasertib monohydrochloride]
0.29 | 0.43 | 7.1 | 16 | 28 | amorphous* | CC(C)NC[C@@H](C(=O)N1CCN(c2ncnc3c2[C@H](C)C[C@H]3O)CC1)c1ccc(Cl)cc1 [Composition 140110407, ipatasertib monohydrochloride]
0.38 | 0.55 | 10 | 28 | 56 | amorph.* | CC(C)NC[C@@H](C(=O)N1CCN(c2ncnc3c2[C@H](C)C[C@H]3O)CC1)c1ccc(Cl)cc1 [Composition 141210421, ipatasertib monohydrochloride]
0.32 | 0.47 | 8.4 | 21 | 42 | Amorphous* | CC(C)NC[C@@H](C(=O)N1CCN(c2ncnc3c2[C@H](C)C[C@H]3O)CC1)c1ccc(Cl)cc1 [Composition 130710452, ipatasertib monohydrochloride]
0.39 | 0.55 | 10 | 28 | 56 | amorph.* | CC(C)NC[C@@H](C(=O)N1CCN(c2ncnc3c2[C@H](C)C[C@H]3O)CC1)c1ccc(Cl)cc1 [Composition 141210423, ipatasertib monohydrochloride]
